Earlier results, collected in US20120316496A1, “USE OF COMPOSITIONS TO COAT CATHETER BALLOONS AND COATED CATHETER BALLOONS” (priority 2009, published 2012).

Conditions: at 20° C.

Compound	vapor pressure
CCOC(C)=O [Ethyl acetate]	9700 Pa
OCCO [Ethylene glycol]	5,3 Pa
C[S+](C)[O-] [DMSO, dimethyl sulfoxide]	250 Pa
CC12CCC(CC1=O)C2(C)C (stereo not shown) [Camphor]	20 Pa
